The values below come from patent US8883799B2, “Tricyclic PI3K inhibitor compounds and methods of use” (Genentech, Inc., priority 2010, dated 2014).

One may read the EC50 as the concentration needed to bring the measured effect to its halfway point. For orientation: IC50 means the concentration at which inhibition is half-maximal.

One assay relates to MDA-MB-361.1. As to the kind of experiment: In vitro cell proliferation assay (CellTiter-Glo), MDA-MB-361.1. Type of assay: cell-based. As to conditions: Cell line: MDA-MB-361.1; Tissue type: breast; Mutation Status: PI3K; read-out: EC50 (μmole). On the procedure:
(§1) Efficacy of Formula I compounds was measured by a cell proliferation assay employing the following protocol (Promega Corp. Technical Bulletin TB288; Mendoza et al (2002) Cancer Res. 62:5485-5488):
(§2) 1. An aliquot of 100 μl of cell culture containing about 10^4 cells (PC3, Detroit562, or MDAMB361.1) in medium was deposited in each well of a 384-well, opaque-walled plate.
(§3) 2. Control wells were prepared containing medium and without cells.
(§4) 3. The compound was added to the experimental wells and incubated for 3-5 days.
(§5) 4. The plates were equilibrated to room temperature for approximately 30 minutes.
(§6) 5. A volume of CellTiter-Glo® Reagent equal to the volume of cell culture medium present in each well was added.
(§7) 6. The contents were mixed for 2 minutes on an orbital shaker to induce cell lysis.
(§8) 7. The plate was incubated at room temperature for 10 minutes to stabilize the luminescence signal.
(§9) 8. Luminescence was recorded and reported in graphs as RLU=relative luminescence units.
(§10) Alternatively, cells were seeded at optimal density in a 96 well plate and incubated for 4 days in the presence of test compound. Alamar Blue™ was subsequently added to the assay medium, and cells were incubated for 6 hr before reading at 544 nm excitation, 590 nm emission. EC50 values were calculated using a sigmoidal dose response curve fit. The term EC50 refers to the half maximal effective concentration and is the concentration at which a drug induces a response halfway between the baseline and maximum after some specified exposure time. It is commonly used as a measure of drug potency.
(§11) The anti-proliferative effects of Formula I exemplary compounds were measured by the CellTiter-Glo® Assay against various tumor cell lines, including the following: […]
A general note: Cellular ATP, detected with luciferase, serves as a proxy for viable cell number.

Another assay concerns PC3. Kind of assay: In vitro cell proliferation assay (CellTiter-Glo), PC3. As to conditions: Homo sapiens, PC-3; Cell line: PC3; Tissue type: prostate; Mutation Status: PTEN; read-out: EC50 (μmole). Type of assay: cell-based. On the procedure:
as §1, §2, §3, §4, §5, §6, §7, §8, §9, §10, §11

For another assay, the target named is T1, p110 alpha PI3K (Homo sapiens, UniProt P42336).
T1 construct: purchased Upstate Cell Signaling Solutions, Charlottesville, Va
As to the kind of experiment: p110α (alpha) PI3K binding assay (fluorescence polarization; alternatively radiometric). As to conditions: read-out: IC50, Ki (μmole) PI3K, p110 alpha binding assay. As to the method:
Binding Assays: Initial polarization experiments were performed on an Analyst HT® 96-384 (Molecular Devices Corp, Sunnyvale, Calif.). […] After an incubation time of 30 minutes at room temperature, the reactions were stopped by the addition of GRP-1 and PIP3-TAMRA probe (Echelon-Inc., Salt Lake City, Utah) 100 nM and 5 nM final concentrations respectively. Read with standard cut-off filters for the rhodamine fluorophore (λex=530 nm; λem=590 nm) in 384-well black low volume Proxiplates® (PerkinElmer, Wellesley, Mass.) Fluorescence polarization values were plotted as a function of the protein concentration, and the EC50 values were obtained by fitting the data to a 4-parameter equation using KaleidaGraph® software (Synergy software, Reading, Pa.). This experiment also establishes the appropriate protein concentration to use in subsequent competition experiments with inhibitors.
After an incubation time of 30 minutes at room temperature, the reactions were stopped by the addition of GRP-1 and PIP3-TAMRA probe (Echelon-Inc., Salt Lake City, Utah) 100 nM and 5 nM final concentrations respectively. Read with standard cut-off filters for the rhodamine fluorophore (λex=530 nm; λem=590 nm) in 384-well black low volume PROXIPLATES® (PerkinElmer, Wellesley, Mass.) Fluorescence polarization values were plotted as a function of the antagonist concentration, and the IC50 values were obtained by fitting the data to a 4-parameter equation in Assay Explorer® software (MDL, San Ramon, Calif.).
The Formula I compound was serially diluted in 100% DMSO. The kinase reaction was incubated for 1 hr at room temperature, and the reaction was terminated by the addition of PBS. IC50 values were subsequently determined using sigmoidal dose-response curve fit (variable slope).
For orientation: In fluorescence polarisation assays a small probe gives low polarisation when free and higher when bound to something large.

T1 sequence (P42336 whole entry): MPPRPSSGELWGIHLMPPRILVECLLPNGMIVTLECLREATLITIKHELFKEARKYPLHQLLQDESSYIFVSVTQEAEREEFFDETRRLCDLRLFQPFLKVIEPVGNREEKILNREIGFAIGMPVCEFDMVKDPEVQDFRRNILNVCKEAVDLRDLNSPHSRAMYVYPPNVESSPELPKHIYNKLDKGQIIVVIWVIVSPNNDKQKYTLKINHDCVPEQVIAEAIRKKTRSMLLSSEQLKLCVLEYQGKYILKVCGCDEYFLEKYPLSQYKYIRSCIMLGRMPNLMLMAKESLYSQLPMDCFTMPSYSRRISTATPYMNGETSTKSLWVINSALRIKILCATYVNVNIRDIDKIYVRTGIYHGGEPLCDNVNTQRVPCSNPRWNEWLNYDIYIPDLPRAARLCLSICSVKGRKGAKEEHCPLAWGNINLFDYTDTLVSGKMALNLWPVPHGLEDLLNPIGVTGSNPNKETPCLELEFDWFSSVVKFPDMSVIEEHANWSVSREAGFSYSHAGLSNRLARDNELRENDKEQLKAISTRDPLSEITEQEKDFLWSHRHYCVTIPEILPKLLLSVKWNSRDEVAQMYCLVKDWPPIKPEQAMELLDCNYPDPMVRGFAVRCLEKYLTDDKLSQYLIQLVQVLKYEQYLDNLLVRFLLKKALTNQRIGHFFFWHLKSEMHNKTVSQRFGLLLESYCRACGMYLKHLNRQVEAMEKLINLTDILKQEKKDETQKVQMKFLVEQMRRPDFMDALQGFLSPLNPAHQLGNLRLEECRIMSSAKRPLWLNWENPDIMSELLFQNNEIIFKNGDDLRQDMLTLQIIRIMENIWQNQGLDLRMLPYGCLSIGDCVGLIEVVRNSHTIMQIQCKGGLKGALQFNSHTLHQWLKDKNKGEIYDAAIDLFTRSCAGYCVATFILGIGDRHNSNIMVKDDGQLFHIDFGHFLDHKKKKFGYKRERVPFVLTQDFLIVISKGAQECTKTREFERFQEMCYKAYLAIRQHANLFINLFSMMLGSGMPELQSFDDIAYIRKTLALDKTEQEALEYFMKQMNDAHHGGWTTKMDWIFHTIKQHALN
T1 sequence (P27986 whole entry partner): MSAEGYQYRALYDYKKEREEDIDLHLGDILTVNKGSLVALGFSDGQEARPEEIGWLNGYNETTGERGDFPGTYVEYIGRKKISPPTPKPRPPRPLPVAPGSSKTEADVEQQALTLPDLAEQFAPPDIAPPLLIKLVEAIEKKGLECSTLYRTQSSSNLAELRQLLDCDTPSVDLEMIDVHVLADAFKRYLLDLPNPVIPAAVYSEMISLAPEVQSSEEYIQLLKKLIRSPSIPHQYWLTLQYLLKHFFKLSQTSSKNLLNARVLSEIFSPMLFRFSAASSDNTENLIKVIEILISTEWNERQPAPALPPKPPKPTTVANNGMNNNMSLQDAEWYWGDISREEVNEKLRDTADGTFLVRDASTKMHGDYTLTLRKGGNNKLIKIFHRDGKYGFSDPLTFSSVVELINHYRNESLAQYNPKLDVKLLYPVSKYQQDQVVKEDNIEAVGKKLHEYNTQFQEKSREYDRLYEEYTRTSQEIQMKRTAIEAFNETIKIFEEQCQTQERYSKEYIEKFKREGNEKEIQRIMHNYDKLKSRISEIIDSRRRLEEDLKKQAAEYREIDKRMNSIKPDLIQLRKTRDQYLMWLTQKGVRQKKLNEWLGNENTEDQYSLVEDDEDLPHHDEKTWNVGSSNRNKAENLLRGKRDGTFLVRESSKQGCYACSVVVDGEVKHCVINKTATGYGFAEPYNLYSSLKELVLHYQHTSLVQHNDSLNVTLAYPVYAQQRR

`Cc1nc(N)ncc1-c1nc(N2CCOCC2)c2nc3n(c2n1)CCOC3(C)C` [Compound 102, 5-(6,6-dimethyl-4-morpholino-8,9-dihydro-6h-[1,4]oxazino[3,4-e]purin-2-yl)-4-methylpyrimidin-2-amine]: the figures for the concentration giving a half-maximal response (EC50) with MDA-MB-361.1 and in the assay on PC3 were 0.081 µM and 2 µM, respectively.
Regarding `CC1(C)CCn2c(nc3c(N4CCOCC4)nc(-c4cnc(N)nc4)nc32)O1` [Compound 115, 5-(7,7-dimethyl-4-morpholino-8,9-dihydro-7h-[1,3]oxazino[2,3-e]purin-2-yl)pyrimidin-2-amine], the EC50 in the assay on MDA-MB-361.1 was 0.958 µM; in the assay with PC3 it was 1.8 µM.
Turning to `Nc1ncc(-c2nc(N3CCOCC3)c3c(n2)N2CCC[C@H]2CO3)cn1` [Compound 122, 5-((S)-6-Morpholin-4-yl-2,3,3a,4-tetrahydro-1H-5-oxa-7,9,9b-triaza-cyclopenta[a]naphthalen-8-yl)-pyrimidin-2-ylamine], the figures for the concentration giving a half-maximal response (EC50) with MDA-MB-361.1 and in the assay on PC3 were 3.2 µM and 2 µM, respectively.
In the case of `CC1(C)OCCn2c1nc1c(N3CCOCC3)nc(-c3ccc(N)cn3)nc12` [Compound 138, 6-(6,6-dimethyl-4-morpholino-8,9-dihydro-6H-[1,4]oxazino[3,4-e]purin-2-yl)pyridine-3-amine], the concentration for a half-maximal effect (EC50) with MDA-MB-361.1 and with PC3 was more than 10 µM each time. Also, on p110 alpha PI3K, the IC50 is more than 0.695 µM.
Turning to `Nc1ncc(-c2nc(N3CCOCC3)c3nc4n(c3n2)CCO[C@H]4C(F)(F)F)cn1` [Compound 139, (R)-5-(4-morpholino-6-(trifluoromethyl)-8,9-dihydro-6H-[1,4]oxazino[3,4-e]purin-2-yl)pyrimidin-2-amine], the figures for the half-maximal effective concentration (EC50) in the assay on MDA-MB-361.1 and with PC3 were 0.424 µM and 0.697 µM, respectively.
Consider `CC(C)Cn1cc(-c2nc(N3CCOCC3)c3nc4n(c3n2)CCOC4(C)C)cn1` [Compound 148, 2-(1-isobutyl-1H-pyrazol-4-yl)-6,6-dimethyl-4-morpholino-8,9-dihydro-6H-[1,4]oxazino[3,4-e]purine], for which the EC50 with MDA-MB-361.1 and with PC3 was more than 10 µM in each case. Further, the half-inhibitory concentration (IC50) at p110 alpha PI3K was more than 0.695 µM.
For the compound `CN(C)c1cnc(-c2nc(N3CCOCC3)c3nc4n(c3n2)CCOC4(C)C)cn1` [Compound 163, 5-(6,6-dimethyl-4-morpholino-8,9-dihydro-6H-[1,4]oxazino[3,4-e]purin-2-yl)-N,N-dimethylpyrazin-2-amine], the EC50 in the assay on MDA-MB-361.1 and in the assay on PC3 was more than 10 µM each time. For the same compound, the half-inhibitory concentration (IC50) on p110 alpha PI3K is more than 0.695 µM.
As for `CC(C)NC(=O)Nc1ccc(-c2nc(N3CCOCC3)c3nc4n(c3n2)CCOC4(C)C)cc1` [Compound 165, 1-(4-(6,6-dimethyl-4-morpholino-8,9-dihydro-6H-[1,4]oxazino[3,4-e]purin-2-yl)phenyl)-3-isopropylurea], the 50% effective concentration (EC50) with MDA-MB-361.1 amounted to 1.2 µM; with PC3, 1.3 µM.
In the same order, the values of `CC1(C)OCCc2c1sc1c(N3CCOCC3)nc(-c3cnc(N)nc3)nc21` [Compound 168, 5-(8,8-Dimethyl-1-morpholin-4-yl-5,8-dihydro-6H-7-oxa-9-thia-2,4-diaza-fluoren-3-yl)-pyrimidin-2-ylamine] are 0.237 µM and 0.215 µM.
As for `FC(F)(F)C1OCCn2c1nc1c(N3CCOCC3)nc(-c3cccc4[nH]ncc34)nc12` (centres unmarked) [Compound 169, 2-(1H-indazol-4-yl)-4-morpholino-6-(trifluoromethyl)-8,9-dihydro-6H-[1,4]oxazino[3,4-e]purine], the concentration giving a half-maximal response (EC50) in the assay on MDA-MB-361.1 was found to be 4.4 µM; with PC3, 6.9 µM.
In the same order, the values of `Oc1cccc(-c2nc(N3CCOCC3)c3nc4n(c3n2)CCOC4C(F)(F)F)c1` (centres unmarked) [Compound 170, 3-(4-morpholino-6-(trifluoromethyl)-8,9-dihydro-6H-[1,4]oxazino[3,4-e]purin-2-yl)phenol] are 0.92 µM and 1.1 µM.
For `C[C@@H]1CN(c2nc(-c3cnc(N)nc3)nc3c2nc2n3CCOC2(C)C)C[C@H](C)O1` [Compound 171, 5-(4-((2S,6R)-2,6-dimethylmorpholino)-6,6-dimethyl-8,9-dihydro-6H-[1,4]oxazino[3,4-e]purin-2-yl)pyrimidin-2-amine], in that order: 3.1 µM and 3.8 µM.
With `CC1(C)CN(c2nc(-c3cnc(N)nc3)nc3c2nc2n3CCOC2(C)C)CCO1` [Compound 172, 5-(4-(2,2-dimethylmorpholino)-6,6-dimethyl-8,9-dihydro-6H-[1,4]oxazino[3,4-e]purin-2-yl)pyrimidin-2-amine], the concentration giving a half-maximal response (EC50) with MDA-MB-361.1 turned out to be 1.5 µM; in the assay with PC3 it was 1.4 µM.
Turning to `CC1(C)OCCn2c1nc1c(N3C[C@@H]4C[C@H]3CO4)nc(-c3cnc(N)nc3)nc12` [Compound 174, 5-(4-((1S,4S)-2-oxa-5-azabicyclo[2.2.1]heptan-5-yl)-6,6-dimethyl-8,9-dihydro-6H-[1,4]oxazino[3,4-e]purin-2-yl)pyrimidin-2-amine], the results for the EC50 in the assay with MDA-MB-361.1 and in the assay with PC3 were 3.4 µM and 3.6 µM, respectively.
On to `CC1c2nc3c(N4CCOCC4)nc(-c4cnc(N)nc4)nc3n2CCN1C` (centres unmarked) [Compound 176, 5-(6,7-dimethyl-4-morpholino-6,7,8,9-tetrahydropyrazino[2,1-e]purin-2-yl)pyrimidin-2-amine], for which the results for the half-maximal effective concentration (EC50) in the assay with MDA-MB-361.1 and in the assay on PC3 were 0.889 µM and 1.9 µM, respectively.
For the compound `CC1(C)OCCn2c1cc1c(N3CCOCC3)nc(-c3cnc(N)nc3)nc12` [Compound 177, 5-(8,8-Dimethyl-1-morpholin-4-yl-5,6-dihydro-8H-7-oxa-2,4,4b-triaza-fluoren-3-yl)-pyrimidin-2-ylamine], the EC50 in the assay with MDA-MB-361.1 was 0.094 µM; in the assay with PC3 it was 0.185 µM.
